Assay: xn = mol fraction of the nth substance listed
Details: 100 kPa, Liquid; for mass density: Vibrating tube method; for viscosity: Falling or rolling sphere viscometry

OCCCO [propan-1,3-diol] + O
Details	mass density, 288.15 K [kg/m3]	mass density, 293.15 K [kg/m3]	mass density, 298.15 K [kg/m3]	mass density, 303.15 K [kg/m3]	mass density, 308.15 K [kg/m3]	mass density, 313.15 K [kg/m3]	mass density, 318.15 K [kg/m3]	viscosity, 293.15 K [mPa·s]	viscosity, 298.15 K [mPa·s]	viscosity, 303.15 K [mPa·s]
x2 = 0	1056.2	1053.2	1049.9	1046.7	1043.5	1040.4	1037.9	51.55	40.8	32.74
x2 = 0.0749	–	–	–	–	–	–	–	46.34	36.93	29.67
x2 = 0.1625	1056.2	1053.1	1049.7	1046.4	1043.1	1039.9	1037.4	40.76	32.58	26.38
x2 = 0.1737	1056.2	1053.1	1049.7	1046.4	1043.1	1040	1037.4	–	–	–
x2 = 0.2386	1056.4	1053.3	1049.9	1046.6	1043.2	1040.1	1037.5	–	–	–
x2 = 0.239	–	–	–	–	–	–	–	35.86	29.01	23.45
x2 = 0.2519	1056.5	1053.4	1049.9	1046.6	1043.3	1040.1	1037.5	–	–	–
x2 = 0.3216	1056.6	1053.5	1050.1	1046.8	1043.5	1040.2	1037.6	–	–	–
x2 = 0.3361	–	–	–	–	–	–	–	29.72	24.27	19.97
x2 = 0.3669	1056.4	1053.3	1050	1046.7	1043.3	1040.1	1037.5	–	–	–
x2 = 0.4223	–	–	–	–	–	–	–	24.46	20.06	16.66
x2 = 0.4238	1056	1053	1049.6	1046.4	1043.1	1039.9	1037.3	–	–	–
x2 = 0.4553	1055.6	1052.6	1049.3	1046.1	1042.8	1039.6	1037	–	–	–
x2 = 0.5075	1054.7	1051.8	1048.5	1045.3	1042.1	1038.9	1036.2	–	–	–
x2 = 0.5134	–	–	–	–	–	–	–	19.25	15.64	13.18
x2 = 0.5501	1053.7	1050.8	1047.6	1044.4	1041.2	1038	1035.4	–	–	–
x2 = 0.6009	1052.1	1049.2	1046.1	1042.9	1039.7	1036.5	1033.9	–	–	–
x2 = 0.6309	–	–	–	–	–	–	–	13.16	10.59	8.95
x2 = 0.653	1049.9	1047.1	1043.9	1040.8	1037.6	1034.4	1031.8	–	–	–
x2 = 0.7146	1046.3	1043.5	1040.4	1037.2	1034	1030.9	1028.4	–	–	–
x2 = 0.7446	–	–	–	–	–	–	–	7.99	6.43	5.46
x2 = 0.7532	1043.2	1040.5	1037.4	1034.3	1031.1	1028.1	1025.5	–	–	–
x2 = 0.804	1038.3	1035.5	1032.6	1029.6	1026.6	1023.5	1021.1	–	–	–
x2 = 0.8508	1032.1	1029.6	1026.9	1024.1	1021.3	1018.4	1016.1	–	–	–
x2 = 0.872	–	–	–	–	–	–	–	3.72	3.13	2.78
x2 = 0.9021	1023.5	1021.3	1018.9	1016.6	1014	1011.4	1009.2	–	–	–

Source: the NIST ThermoML archive (doi:10.1021/acs.jced.6b00526)
